# Experimental data as given in PMC3951181, “Rosamines Targeting the Cancer Oxidative Phosphorylation Pathway” (PLoS ONE, 2014).
# Experiments:
# HSC-2 cells = experiment: JC-1 analysis of mitochondrial membrane potential; format: cell-based, human; details: for cell population with mitochondrial transmembrane potential loss: 0.1 µM, untreated control about 8% at 8 h
# Experimental: The mitochondrial membrane potential was measured based on the potential–dependent accumulation of the cationic JC-1 dye which results in a shift of fluorescence emission from green (∼525 nm) to red (∼590 nm) due to the formation of J-aggregates. Therefore, mitochondrial depolarization is indicated by a decrease in the red/green fluorescence intensity ratio. Briefly, cells were collected and suspended in 1 ml warm media at approximately 1×10^6 cell/ml. In a control tube, 1 µl of 50 mM CCCP was added and incubated at 37°C for 5 min. Then, 10 µl of 200 µM JC-1 was added into the cells and incubated at 37°C for 30 min. Cells were washed twice with warm PBS, resuspended in 500 µl of PBS and analyzed on a FACSCalibur flow cytometer using 488 nm excitation with 530/30 nm and 585/42 nm bandpass emission filters.
# Meanwhile, the mitochondrial transmembrane potential loss was more prominent in HSC-2 cells treated with 5 at 0.1 µM. Approximately 21% (P<0.05) of the cell population was affected in the first hour and the percentage increased drastically to 34% in 8 h. For the untreated control cells, the population of depolarized cells at 8 h remained at approximately 8%. […] CCCP is an oxidative phosphorylation decoupling agent which acts as a positive control for the experiment.
# [1] = system: panel of solid human tumor cell lines (MCF-7, HCT-116, HSC-2, HK-1); experiment: MTT cell viability assay, panel of cancer cell lines; format: cell-based; details: mean over MCF-7, HCT-116, HSC-2, HK-1
# Experimental: (§1) MCF-7 breast carcinoma and HCT-116 colon carcinoma cell lines were obtained from American Tissue Culture Collection (Virginia, USA) and maintained in RPMI 1640 medium supplemented with 10% FBS. HSC-2 oral cavity human squamous carcinoma cells were obtained from Health Science Research Resources Bank (Japan). HK-1, a previously characterized nasopharyngeal squamous carcinoma cells is a gift by Prof. Wong Y.C. from the University of Hong Kong. Both cell lines were grown in MEM medium supplemented with 10% FBS. For cell viability assay, cells at 4000 cells/well in 80 µl of medium were inoculated in 96-well plates and were allowed to adhere overnight. Cells were then treated with each compound at concentrations ranging from 0.001–10 µM giving the final volume of 100 µl in each well. At the end of incubation period, 15 µl of 5.0 mg/ml MTT in phosphate buffered saline (PBS) was added and incubated for 4 h. Medium and excessive MTT were aspirated and the resulting formazan was solubilized with 100 µl of dimethyl sulfoxide. Absorbance was read at 570 nm with SpectraMax M4 microplate spectrophotometer (Molecular Devices, CA).
# (§2) The in vitro antitumor activity of rosamines was assessed using a 48 h endpoint cell viability methylthiazolyldiphenyl-tetrazolium bromide (MTT) assay against a panel of solid human tumor cell lines including breast carcinoma (MCF-7), colon carcinoma (HCT-116), oral squamous cell carcinoma (HSC-2) and nasopharyngeal carcinoma (HK-1). […] Within the halide series, cytotoxicities increase in the following order 4>3>[…] (Cl>Br>I), although not statistically significant (P>0.05).
# MCF-7 breast carcinoma = experiment: MTT cell viability assay, 48 h; format: cell-based; details: Homo sapiens, MCF7, 48 h post-treatment, mean ± SD
# Experimental: as §1, §2
# HCT-116 colon carcinoma = experiment: MTT cell viability assay, 48 h; format: cell-based; details: Homo sapiens, 48 h post-treatment, mean ± SD
# Experimental: as §1, §2
# [2] = system: HSC-2 oral cavity human squamous carcinoma cells; experiment: MTT cell viability assay, 48 h; format: cell-based; details: 48 h post-treatment, mean ± SD
# Experimental: as §1, §2
# [3] = system: HK-1 nasopharyngeal squamous carcinoma cells; experiment: MTT cell viability assay, 48 h; format: cell-based; details: Homo sapiens, 48 h post-treatment, mean ± SD
# Experimental: as §1, §2
# Complex IV = Complex IV (Mus musculus, UniProt P00397+P00405+P00416); experiment: Immunocapture ELISA microplate enzyme activity assay; details: read-out: IC50 Complex IV activity; mouse liver mitochondria extract; 0.01–10 µM
# [4] = system: panel of solid human tumor cell lines (MCF-7, HCT-116, HSC-2, HK-1); design: method as in PMID 19387338; details: anticancer activity in cellular assays; previous study; cited from earlier work
# Complex I = experiment: Immunocapture ELISA microplate enzyme activity assay; format: biochemical; details: mouse liver mitochondria extract; 0.01–10 µM
# Complex II = Complex II (Mus musculus, UniProt Q8K2B3+Q9CQA3+Q9CXV1+Q9CZB0); experiment: as above; format: biochemical; details: mouse liver mitochondria extract; 0.01–10 µM
# ATP synthase = ATP synthase (Mus musculus, UniProt P56480+Q03265); experiment: as above; details: read-out: IC50 ATP synthase activity; mouse liver mitochondria extract; 0.01–10 µM
# [5] = system: NCI-60 human tumor cell lines; experiment: NCI-60 screen, sulforhodamine B, whole panel; format: cell-based; details: overall value for the NCI-60 cell lines screen; for GI50: Homo sapiens
# Experimental: NCI-60 cell panel screening was performed by the NCI/National Institutes of Health developmental therapeutics program (Bethesda, US). This platform allows the determination of growth inhibitory profiles of test compounds on 60 different human cancer cell lines, representing leukemia, melanoma and cancers of the lung, colon, central nervous system, ovary, breast, prostate, and renal subpanel. Sulforhodamine B assay was used to assess the cytotoxicity of test agents in a panel of 60 cell lines. Briefly, the human tumor cell lines of the cancer screening panel were grown in RPMI 1640 medium containing 5% FBS and 2 mM L-glutamine. For a typical screening experiment, cells were inoculated into 96 well microtiter plates in 100 µl at plating densities depending on the doubling time of individual cell lines. After cell inoculation, the microtiter plates are incubated at 37°C, 5% CO2 and 100% relative humidity for 24 h. Following incubation, aliquots of 100 µl of compound at different dilutions were added to the appropriate microtiter wells and were further incubated for 48 h. At the assay end-point, cells were fixed with trichloroacetic acid followed by Sulforhodamine B staining for cellular protein content. Sulforhodamine B absorbance was read at a wavelength of 515 nm as a measurement of cell density.
# [6] = Body weight and adverse effects in treated mice; format: in vivo
# Experimental: Tumor allografts were initiated by subcutaneous injection of 5×10^5 4T1 mouse mammary carcinoma in 0.1 ml RPMI 1640 media into the inguinal mammary fat-pads of mice. Tumor growth was monitored and treatments were initiated when tumors reached volume of approximately 200 mm^3. To assess the tumor growth inhibition, 4T1 tumor bearing mice were randomized into groups with at least eight animals per group. […] For control group, normal saline was given. The animal weights and tumor volume were measured three times weekly for 14 d. The tumor volume was calculated using the equation: (length×width^2)/2 and relative tumor volume (RTV) was calculated for every tumor volume at any given time (VT) against the tumor volume at staging day (V0) using the equation: VT/V0. The RTV – time profile for each group was plotted and tumor growth delay in attaining a specified number of doublings compared to control was determined, [19]. Results were expressed as median ±95% confidence interval (n = 8).
# Meanwhile, the terminal percent test/control (% T/C) values calculated at the end of experiment were 72% and 66% in mice receiving 5 mg/kg and 3 mg/kg (q2d×6) respectively. The antitumor efficacy of 5 is minimal as the % T/C attained after treatment had ended is not ≤40% activity, the minimal rating for a compound to be considered active. […]
# [7] = system: 4T1 mouse mammary carcinoma; experiment: In vivo antitumor efficacy, tumor allograft; design: species or system female BALB/c mice; details: for median day for 4T1 tumor in attaining two-doubling growth (RTV = 4): control approximately 9 days; for terminal percent test/control (% T/C): end of experiment (day 14)
# Experimental: All animal experiments were conducted in accordance with protocols reviewed and approved by Dr. Haji Azizuddin Bin Haji Kamaruddin, Laboratory Animal Centre (LAC) Animal Care and Use Committee of Faculty of Medicine, University of Malaya (reference number FAR/14/07/2010/LSH). Female BALB/c mice aged between 6–8 weeks with a minimum weight of 17 g were maintained in a controlled environment of 12 h light-dark cycles with free access to food (standard pellet diet purchased from Altromin International, Lage, Germany) and purified water. Female mice were used because the hormonal environment essential for development of implanted 4TI mouse mammary carcinoma would be present.
# Tumor allografts were initiated by subcutaneous injection of 5×10^5 4T1 mouse mammary carcinoma in 0.1 ml RPMI 1640 media into the inguinal mammary fat-pads of mice. Tumor growth was monitored and treatments were initiated when tumors reached volume of approximately 200 mm^3. To assess the tumor growth inhibition, 4T1 tumor bearing mice were randomized into groups with at least eight animals per group. Compound 5 was prepared at 0.3 mg/ml in normal saline and treatment was administered intravenously at 5 mg/kg on staging day or 3 mg/kg every other day for six treatments (q2dx6). For control group, normal saline was given. The animal weights and tumor volume were measured three times weekly for 14 d. The tumor volume was calculated using the equation: (length×width^2)/2 and relative tumor volume (RTV) was calculated for every tumor volume at any given time (VT) against the tumor volume at staging day (V0) using the equation: VT/V0. The RTV – time profile for each group was plotted and tumor growth delay in attaining a specified number of doublings compared to control was determined, [19]. Results were expressed as median ±95% confidence interval (n = 8).
# [8] = Solubility in aqueous media for treatment stock; format: physicochemical; details: reconstitution of treatment stock at 10 mM
# Experimental: Compounds 3, 4 and 6 were synthesized to test if meso-replacement with 4-bromobenzene 3, 4-chlorobenzene 4 or 2-furyl 6 groups would affect the anticancer activity. In addition, the 4-iodobenzene 7 or 2-thiofuran meso substituents 8 and unsymmetrical piperidine/[…] amine substituents were synthesized and investigated. Rosamines 1–4 and 7 were not appreciably water-soluble so they were reconstituted in DMSO at 10 mM as treatment stock.
# Sequence of Complex II (Q8K2B3 43-664): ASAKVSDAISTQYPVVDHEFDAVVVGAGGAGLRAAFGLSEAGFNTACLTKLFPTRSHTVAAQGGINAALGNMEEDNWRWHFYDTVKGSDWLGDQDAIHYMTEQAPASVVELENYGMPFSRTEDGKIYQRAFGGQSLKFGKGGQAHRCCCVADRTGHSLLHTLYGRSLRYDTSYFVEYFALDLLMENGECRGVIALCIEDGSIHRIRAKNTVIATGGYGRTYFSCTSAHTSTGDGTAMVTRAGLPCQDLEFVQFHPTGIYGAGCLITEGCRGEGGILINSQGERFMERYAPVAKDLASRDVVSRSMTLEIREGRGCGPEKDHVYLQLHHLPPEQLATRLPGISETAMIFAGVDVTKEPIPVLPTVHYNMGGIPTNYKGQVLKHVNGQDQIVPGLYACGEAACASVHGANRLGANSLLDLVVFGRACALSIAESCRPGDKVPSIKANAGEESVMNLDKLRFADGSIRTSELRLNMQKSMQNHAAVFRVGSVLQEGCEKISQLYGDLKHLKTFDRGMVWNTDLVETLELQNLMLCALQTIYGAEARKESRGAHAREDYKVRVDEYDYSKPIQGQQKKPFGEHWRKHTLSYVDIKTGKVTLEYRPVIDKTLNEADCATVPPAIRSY
# Sequence of Complex II (Q9CQA3 31-282): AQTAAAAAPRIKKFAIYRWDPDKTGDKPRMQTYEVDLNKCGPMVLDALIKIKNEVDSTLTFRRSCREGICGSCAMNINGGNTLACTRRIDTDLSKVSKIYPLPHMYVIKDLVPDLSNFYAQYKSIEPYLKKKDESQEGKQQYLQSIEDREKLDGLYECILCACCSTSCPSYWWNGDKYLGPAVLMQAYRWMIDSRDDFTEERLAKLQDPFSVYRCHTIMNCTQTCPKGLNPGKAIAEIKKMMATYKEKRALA
# Sequence of Complex II (Q9CZB0 30-169): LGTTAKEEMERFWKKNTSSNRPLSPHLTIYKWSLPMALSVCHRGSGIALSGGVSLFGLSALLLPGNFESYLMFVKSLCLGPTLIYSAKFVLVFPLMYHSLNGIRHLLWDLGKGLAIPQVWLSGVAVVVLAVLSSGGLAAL
# Sequence of Complex II (Q9CXV1 57-159): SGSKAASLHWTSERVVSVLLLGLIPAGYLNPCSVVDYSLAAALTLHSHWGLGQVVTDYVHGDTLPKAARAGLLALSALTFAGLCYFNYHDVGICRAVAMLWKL
SMILES,IC50 [1],IC50 (MCF-7 breast carcinoma),IC50 (HCT-116 colon carcinoma),IC50 [2],IC50 [3],water solubility [8],also measured
"N#CC(C#N)=NNc1cccc(Cl)c1 [CCCP, Carbonyl cyanide 3-chlorophenylhydrazone, reference compound]",,,,,,,"cell population with loss of membrane potential (HSC-2 cells; 5 µM for 5 min, positive control): 70%"
c1ccc(-c2c3ccc(=[N+]4CCCCC4)cc-3oc3cc(N4CCCCC4)ccc23)cc1 [Rosamine 1],630 nM,1200 ± 700 nM,600 ± 410 nM,90 nM,610 ± 70 nM,,
Ic1ccc(-c2c3ccc(=[N+]4CCCCC4)cc-3oc3cc(N4CCCCC4)ccc23)cc1 [Rosamine 2],410 nM,590 ± 120 nM,390 ± 70 nM,350 ± 50 nM,290 ± 30 nM,,cell population with mitochondrial transmembrane potential loss (HSC-2 cells; 8 h): 19%; cell population with mitochondrial transmembrane potential loss (HSC-2 cells; within 1 h after treatment): 9%; IC50 (Complex IV): > 10000 nM; fold more active than phenyl substituted compound 1 [4]: 5 fold; IC50 (Complex I): > 10000 nM; IC50 Complex II activity (Complex II): did not reach 50% up to maximum concentrations studied; IC50 (ATP synthase): 3900 ± 300 nM
"Brc1ccc(-c2c3ccc(=[N+]4CCCCC4)cc-3oc3cc(N4CCCCC4)ccc23)cc1 [Rosamine 3, 4-Bromobenzene Rosamine]",280 nM,290 ± 40 nM,300 ± 80 nM,190 ± 110 nM,340 nM,,
"Clc1ccc(-c2c3ccc(=[N+]4CCCCC4)cc-3oc3cc(N4CCCCC4)ccc23)cc1 [Rosamine 4, 4-Chlorobenzene Rosamine]",180 nM,150 ± 40 nM,220 ± 140 nM,90 ± 10 nM,250 ± 10 nM,,GI50 [5]: 100 nM; Log10GI50 [5]: −7
c1csc(-c2c3ccc(=[N+]4CCCCC4)cc-3oc3cc(N4CCCCC4)ccc23)c1 [Rosamine 5],110 nM,180 ± 20 nM,70 ± 20 nM,90 ± 10 nM,100 nM,readily solubilized in aqueous media,"body weight loss ([6]; 4T1 tumor bearing mice, 5 mg/kg or 3 mg/kg (q2d×6) i.v., 14 d): ≤ 15%; adverse effects ([6]; mice, 10 mg/kg dose): unacceptable adverse effects such as weight loss, diarrhea and sudden death; GI50 [5]: 100 nM; Log10GI50 [5]: −7; median day for 4T1 tumor in attaining two-doubling growth (RTV = 4) ([7]; 3 mg/kg i.v. q2d×6): ~13 days; terminal percent test/control (% T/C) ([7]; 3 mg/kg i.v. q2d×6): 66%; two-doubling tumor growth delay (T-C)/C ([7]; 5 mg/kg single bolus i.v.): 22%; median day for 4T1 tumor in attaining two-doubling growth (RTV = 4) ([7]; 5 mg/kg single bolus i.v.): ~11 days; terminal percent test/control (% T/C) ([7]; 5 mg/kg single bolus i.v.): 72%; cell population with mitochondrial transmembrane potential loss (HSC-2 cells; 8 h): 34%; cell population with mitochondrial transmembrane potential loss (HSC-2 cells; within 1 h after treatment): Approximately 21%; IC50 (Complex IV): > 10000 nM; fold more active than phenyl substituted compound 1 [4]: 5 fold; IC50 (Complex I): > 10000 nM; IC50 (Complex II): 9600 ± 100 nM; IC50 (ATP synthase): 3000 ± 800 nM"

# More lines, main results first:
IC50 [1],IC50 (MCF-7 breast carcinoma),IC50 (HCT-116 colon carcinoma),IC50 [2],IC50 [3],water solubility [8],SMILES,also measured
200 nM,310 ± 140 nM,100 ± 30 nM,90 nM,310 ± 80 nM,readily solubilized in aqueous media,"c1coc(-c2c3ccc(=[N+]4CCCCC4)cc-3oc3cc(N4CCCCC4)ccc23)c1 [Rosamine 6, Furan Rosamine]",
290 nM,260 ± 70 nM,240 ± 70 nM,220 ± 100 nM,440 ± 10 nM,,"Ic1ccc(-c2c3ccc(=[N+]4CCOCC4)cc-3oc3cc(N4CCCCC4)ccc23)cc1 [Rosamine 7, Unsymmetrical 4-Iodophenyl Rosamine]",
250 nM,170 ± 100 nM,70 ± 20 nM,220 ± 110 nM,530 nM,readily solubilized in aqueous media,"c1csc(-c2c3ccc(=[N+]4CCOCC4)cc-3oc3cc(N4CCCCC4)ccc23)c1 [Rosamine 8, Unsymmetrical Thiofuryl Rosamine]",
